Results from article PMC11173382, “In Vitro Investigations into the Potential Drug Interactions of Pseudoginsenoside DQ Mediated by Cytochrome P450 and Human Drug Transporters” (Molecules, 2024).

Target: T1, hOAT1 (Homo sapiens, UniProt Q4U2R8)
T1 sequence (Q4U2R8 1-563): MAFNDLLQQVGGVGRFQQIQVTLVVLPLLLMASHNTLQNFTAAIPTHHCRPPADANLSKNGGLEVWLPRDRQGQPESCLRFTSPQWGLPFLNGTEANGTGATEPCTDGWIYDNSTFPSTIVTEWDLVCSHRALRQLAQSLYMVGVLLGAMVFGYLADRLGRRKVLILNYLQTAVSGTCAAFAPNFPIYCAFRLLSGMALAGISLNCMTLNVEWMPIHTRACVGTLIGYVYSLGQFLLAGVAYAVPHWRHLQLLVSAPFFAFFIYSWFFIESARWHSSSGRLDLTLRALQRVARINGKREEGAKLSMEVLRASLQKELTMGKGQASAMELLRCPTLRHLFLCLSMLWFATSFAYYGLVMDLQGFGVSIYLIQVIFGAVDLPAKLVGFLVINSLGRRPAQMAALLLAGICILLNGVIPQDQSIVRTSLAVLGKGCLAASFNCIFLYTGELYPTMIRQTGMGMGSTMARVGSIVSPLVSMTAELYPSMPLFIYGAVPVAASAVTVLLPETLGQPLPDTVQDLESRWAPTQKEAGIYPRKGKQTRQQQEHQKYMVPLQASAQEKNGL
Experiment: Substrates uptake assay, MDCKII-OAT1 cells (14C-PAH)
Assay type: in vitro ADME
Text: Drug transporters mediate the cellular uptake and efflux of their substrates. Therefore, cell lines overexpressing a drug transporter can be utilized to investigate inhibitors of the transporter by assessing changes in substrate uptake. For each drug transporter, we selected a well-characterized inhibitor as the positive control. Radiolabeled substrates were used to indicate the decrease in transport efficiency when the drug transporters were inhibited by PDQ or the control inhibitors.
The concentrations of the control drugs and the substrates were stated in the assay details. Working solutions of the control inhibitors, the radiolabeled substrates, and each dose of PDQ were prepared at 200 times (200×) more concentrated solutions with DMSO for further dilution.
Transporter-overexpressed cell lines. Human organic anion transporter-overexpressed cell lines MDCKII-OAT1 and S2-OAT3, human organic anion transport polypeptide-overexpressed cell lines HEK293A-OATP1B1 and HEK293A-OATP1B3, human organic cation transporter 2-overexpressed cell line S2-OCT2, and human multi-drug resistance protein MDR1 (or P-gp)-overexpressed cell line MDCKII-MDR1 were gifts from Japan Fuji Biomedical Co., Ltd. (Fuji, Shizuoka Prefecture, Japan). Breast cancer resistance protein-overexpressed vesicles (sf9-BCRP vesicle) were purchased from GenoMembrane Co., Ltd. (Yokohama, Kanagawa, Japan).
Substrates uptake assay. In this assay, we studied the inhibition of PDQ against transporters OAT1, OAT3, OCT2, OATP1B1 and OATP1B3 with MDCKII-OAT1, S2-OAT3, S2-OCT2, HEK293A-OATP1B1and HEK293A-OATP1B3 cells, respectively. The radiolabeled substrates for OAT1, OAT3, OATP1B1, OATP1B3 and OCT2 were […], respectively (Table 5). Probenecid ([…]) was the positive control inhibitor of OAT1 and OAT3, while rifampicin ([…]) served as the control drug of OATP1B1 and OATP1B3. For OCT2, we used […] cimetidine to compare with the inhibitory effect of PDQ. Two times (2×) more concentrated working solutions of the drugs and the substrate were prepared with Dulbecco’s phosphate-buffered saline (DPBS, Gibco, Grand Island, NY, USA.). Then, an equal volume of 2× drug solution and 2× radiolabeled substrate solution were mixed as the working mix. All reagents were pre-warmed to 37 °C.
The cells were digested with 0.05% trypsin/EDTA. The density of the single-cell suspension was adjusted to 2.0 × 10^5 cells/mL for S2 cells and to 1.5 × 10^5 cells/mL for MDCK II and HEK293A cells. The cell suspension was then added to the reservoirs of the 24-well plate for culture until full confluency. The medium in the wells was removed, and the wells were washed with DPBS. Then, the plate was incubated for 10 min with pre-warmed DPBS in the wells. After removing DPBS, […] of working mix was added to each well to initiate the substrate uptake process. The reaction time was 5 min for S2-OCT2 cells, while the other four types of cells were incubated with the reaction mix for 2 min. Cold DPBS was used to terminate the substrate transportation. To each well, […] NaOH ([…]) was added to lyse the cells. Then, […] cell lysate was transferred to the counting vials, and 3 mL scintillation cocktail (Aquasol-2, PerkinElmer, Waltham, MA, USA) was added. […] Each sample was replicated three times (N = 3).
In = [100 × (U − U0)/(Uc − U0)]%(3)
The results were expressed as mean ± standard deviation (SD) and analyzed with GraphPad Prism 8.0 software (CA, USA). The IC50 of PDQ was curve-fitted with the FORECAST function.

`CC(C)(O)[C@@H]1CC[C@@](C)([C@H]2CC[C@]3(C)[C@@H]2[C@H](O)C[C@@H]2[C@@]4(C)CC[C@H](O)C(C)(C)[C@@H]4CC[C@]23C)O1` [PDQ, (20S,24S)-dammar-20,24-epoxy-3β, 12β, 25-triol] was tested, and the IC50 (MDCKII-OAT1, 14C-PAH 5 µM, 2 min) was > 30 µM, the “DPM (14C-PAH uptake by OAT1)” value (inhibitor 0.1 μM) was 540.3±39.2 DPM and the “DPM (14C-PAH uptake by OAT1)” value (inhibitor 0.3 μM) was 566.0±44.8 DPM. The “DPM (14C-PAH uptake by OAT1)” value (inhibitor 1 μM) was 547.7±68.8 DPM, the “DPM (14C-PAH uptake by OAT1)” value (inhibitor 3 μM) was 496.3±38.1 DPM and the “DPM (14C-PAH uptake by OAT1)” value (inhibitor 10 μM) was 558.7±19.7 DPM. The “DPM (14C-PAH uptake by OAT1)” value (inhibitor 30 μM) was 460.3±5.7 DPM.
